Results: US11001605B2, “Cyclic dinucleotides containing benzimidazole, method for the production of same, and use of same to activate stimulator of interferon genes (sting)-dependent signaling pathways” (BIOLOG LIFE SCIENCE INSTITUTE GmbH & Co. KG, priority 2016, dated 2021)

How the values were obtained:
[1] = test system: THP1 Dual KO STING cells; assay: SEAP reporter assay in THP1 Dual KO STING control cells; assay type: cell-based, human; details: 40 μg/ml, 24 hours (FIG. 2)
Procedure: (§1) Legend for Synthesis 5: THP1-Blue™ cells ((THP1-ISG); InvivoGen, catalogue number: thp-isg; concentration: 5×10^5/ml, 180 μl/well (96-well-plate) and THP1 Dual™ KO STING cells ((STING KO) InvivoGen, catalogue number: thpd-kostg; concentration: 5×10^5/ml, 180 μl/well (96-well-plate) were incubated with inventive CDNs (concentration 40 μg/ml each) in medium (RPMI-1640, 2 mM L-glutamine, 1.5 g/I sodium bicarbonate, 4.5 g/I glucose, 10 mM HEPES, 1 mM sodium pyruvate, 10% FCS, 100 μg/mL Zeocin™, 110 μg/mL Normocin™, Pen-Strep 50 U/mL) for 24 hours at 37° C. in 5% CO2. For incubations with THP1 Dual™ KO STING cells, 10 μg/ml of blasticidin were added to the medium. Quantification was performed with SEAP detection reagent QUANTI-Blue™ (InvivoGen; catalogue number: rep-qb1; incubation time: 15 min at 37° C. in 5% CO2) by optical density (OD) determination at 625 nm.

[2] = test system: STING signalling pathway; assay: Interferon-β promoter SEAP reporter assay in THP1-Blue cells; assay type: cell-based, human; details: 0, 10, 20, 40 μg/ml, 24 hours
Procedure: Legend for Synthesis 4: THP1-Blue™ cells ((THP1-ISG); InvivoGen, catalogue number: thp-isg; concentration: 5×10^5/ml, 180 μl/well (96-well-plate) were incubated with inventive CDNs in different concentrations (0 μg/ml; 10 μg/ml; 20 μg/ml; 40 μg/ml) in medium (RPMI-1640, 2 mM L-glutamine, 1.5 g/I sodium bicarbonate, 4.5 g/I glucose, 10 mM HEPES, 1 mM sodium pyruvate, 10% FCS, 100 μg/ml Zeocin™, 110 μg/ml Normocin™, Pen-Strep 50 U/ml) for 24 hours at 37° C. in 5% CO2. The quantification was performed with SEAP detection reagent QUANTI-Blue™ (InvivoGen; catalogue number: rep-qb1; incubation time: 30 min at 37° C. in 5% CO2) by optical density (OD) determination at 625 nm.
as §1
Cell line: THP1-Blue™ cells (InvivoGen, catalogue number: thp-isg) are derived from THP1 cells. THP1-Blue™ cells in a cell culture dish are stimulated by the administration of a CDN according to the invention or a buffer control.
In these genetically modified cells, the gene for secreted embryonic alkaline phosphatase (SEAP) is under the control of an interferon-β promoter.
After stimulation of the cells with an inventive CDN, the supernatant of the cell culture was removed and the enzymatic activity of SEAP was measured photometrically in a colorimetric assay by measuring the extinction at 625 nm (optical density; OD 625 nm).
Administration of an inventive CDN induces an increase in the activity of SEAP, which is a measure of the activity of the STING signalling pathway.

[3] = Lipophilicity determination by gradient HPLC (log k′g); assay type: physicochemical; details: HPLC gradient 1, RP-18, triethylammonium phosphate buffer pH 6.5 / methanol (ion pair chromatography)
Procedure: Gradient 1: Stationary phase: Polygosil 60-10, RP-18; 250×4 mm (Macherey & Nagel, DOren, Germany). Mobile phase A: 10 ml 1 M triethylammonium phosphate buffer (TEAP), pH 6.5+990 ml methanol. Mobile phase B: 10 ml 1 M TEAP, pH 6.5+990 ml H2O. Time program: 0 min: 100% B; 60 min: 100% A; 65 min: 100% A; 70 min: 100% B; 90 min: 100% B. Flow rate: 1.0 ml/min.
The octanol/water coefficient Log P is the commonly accepted indicator for the expected property of a given chemical entity to pass cellular membranes by passive diffusion. However, its practical determination for polar compounds such as multiply charged nucleotides is difficult in reality. Often, the information about membrane permeability must be received by fragmental analysis or other calculations.
Given this fact, an established HPLC method is used here, which is based on the measurement of retention on a reversed phase column^7. In contrast to Log P, this method yields the indicator log k′g, which allows for a ranking of different nucleotides of the same charge according to their lipophilicity.
Since CDNs are twofold negatively charged molecules which are only very insufficiently retarded on a reversed phase HPLC column, the determinations were performed in presence of the lipophilic triethylammonium cation (ion pair chromatography).
According to the established method^7 HPLC gradient 1 was used for the determination of lipophilicity.

Row | SMILES | effect of elevated OD at 625 nm in STING knock out cells [1] | SEAP activity, elevated OD at 625 nm, concentration-dependent [2] | log k′g ([3]; listed as 29, MI2) | log k′g ([3]; listed as 98, MI1) | log k′g [3]
1 | Nc1nc2c(ncn2[C@@H]2O[C@@H]3COP(=O)(S)OC4C(O)[C@H](n5cnc6cc(Cl)c(Cl)cc65)O[C@@H]4COP(=O)(S)OC2C3O)c(=O)[nH]1 (single isomer, unassigned) [Compound 29, MI2, Cyclic (guanosine-(2′→5′)-monophosphorothioate-5,6-dichlorobenzimidazole riboside-(3′→5′)-monophosphorothioate)] | no longer observed | positive | 2.403 | – | –
2 | Nc1ncnc2c1ncn2[C@@H]1O[C@@H]2COP(=O)(S)OC3C(O)[C@@H](COP(=O)(S)OC2C1O)O[C@H]3n1cnc2ccccc21 (single isomer, unassigned) [Compound 98, MI1, Cyclic (adenosine-(3′→5′)-monophosphorothioate-benzimidazole riboside-(2′→5′)-monophosphorothioate)] | no longer observed | positive | – | 1.524 | –
3 | Nc1ncnc2c1ncn2[C@@H]1O[C@@H]2COP(=O)(O)OC3C(O)[C@H](n4cnc5ccccc54)O[C@@H]3COP(=O)(O)OC2C1F (stereo partly drawn) [Compound 79, cyclic (2′-fluoro-2′-deoxyadenosine-(3′ −> 5′)-monophosphate-benzimidazole riboside-(3′ −> 5′)-monophosphate)] | no longer observed | positive | – | – | 1.322
